In patent US11649238B2, “Substituted pyrazolo[1,5-a]pyrimidines as PI4K inhibitors” (GLAXOSMITHKLINE INTELLECTUAL PROPERTY DEVELOPMENT LIMITED, priority 2018, dated 2023):

Tests used:
[1] = test system: human rhinovirus Type A Strain 16 (HRVA16) in HeLa Ohio cells; test: Cytopathic Effect (CPE) Assay, ATP-depletion in infected HeLa Ohio cells; format: cell-based; conditions: Human rhinovirus sp., HRVA16, HeLa, 48 h, HRVA16 at MOI of 1, 33° C. for 2 days, CellTiter-Glo, read-out: mean pIC50 (converted)
Method: c) Cytopathic Effect (CPE) Assay Protocol
The in vitro inhibition of PI4 KB activity was determined by analysis of the inhibition of ATP-depletion in HeLa Ohio cells in response to infection with human rhinovirus Type A Strain 16 (HRVA16). ATP levels were determined using CellTiter-GLO reagent from Promega. Compounds that inhibit PI4 KB are also potent inhibitors of human rhinoviruses and are able to protect HeLa Ohio cells from CPE induced by viral infection and replication. Protected cells remain viable following viral infection and therefore have greater ATP levels.
Compounds were dissolved in 100% DMSO to a concentration of 3 mM and subsequent dilutions were prepared in 100% DMSO using a 1:3 serial step dilution. A 0.5 μL stamp from an 10-point titration was transferred to a white 96 well Greiner tissue culture flat bottom plate (655083). A 0.5 μL stamp of 100% DMSO was stamped into columns 11 and 12 of the plate, ensuring a final assay DMSO concentration of 0.33% across the plate and a compound top final assay concentration of 10 μM.
HeLa Ohio cells were cultured at 37° C., 5% CO2 in media (DMEM supplemented with 10% Australian origin foetal bovine serum and 2 mM glutamax). Cells were passaged when confluency reached >80%. For the assay, cells were grown to 80-90% confluency before detachment.
Cells were detached for the assay by washing with PBS and detached using 3 mL TrypLE Express for […] at 37° C. Detached cells were mixed with 7 mL of media and centrifuged at 300 g for 5 min. The cell pellet was resuspended in 50 mL media and counted on a Beckman Coulter ViCell. Cells were diluted to 6.6×10^4 cells/mL and some of the cell volume was removed into a new tube to be used as a column 12 control. HRVA16 stock was added to the remaining cell suspension at the appropriate dilution for the virus stock to achieve an MOI of 1.
150 μL of the cell+virus suspension was added per well to columns 1-11 using a Multidrop Combi. 150 μL of the separate cell suspension was added per well to columns 12 using a multichannel pipette. Assay plates were sealed and incubated at 33° C., 5% CO2 for 2 days. After 2 days, assay plates were removed from the incubator and allowed to equilibrate to room temperature. 60 μL of CellTiter-Glo reagent was added to all wells using a Thermo Scientific Multidrop Combi. Plates were incubated at room temperature for 20 min before reading on an a Perkin Elmer Envision (Settings: Gripper height 2.5, Fixed measurement height (mm) 6.5, Distance between plate and detector 0, Measurement time (s) 0.1, Glow (ct2) correction factor (0%)).
The inhibitory effect of the compounds on the PI4 KB activity was evaluated by the IC50 of the response relative to the high (no virus, column 12) and low (virus+no inhibitor, column 11) controls by fitting to a four parameter dose response equation.

[2] = molecular target: T1, human PI4KIII-beta 13-828 (D316-330) (Homo sapiens, UniProt Q9UBF8); test: PI4 KB Activity Assay (ADP-GLO Kinase assay); format: biochemical; conditions: 1 mM ATP, 60 μM phosphatidylinositol, 3 hours at room temperature; read-out: mean pIC50 (converted)
T1 construct: human PI4KIII-beta 13-828 (D316-330)
Method: The in vitro inhibition of human PI4KIII-beta 13-828 (D316-330) activity was determined by using the ADP-GLO Kinase assay kit from Promega. Inhibitors were dissolved in 100% DMSO at a concentration of 1 mM. Dilutions were prepared in 100% DMSO using a 1 in 3 serial step dilution. A 60 nL stamp from an 11-point titration was transferred to a white low volume 384 well Greiner assay plate ensuring a final DMSO concentration of 1% across the plate and a top final concentration of inhibitor of 10 μM. The PI4KIII-beta assay contained 25 mM Hepes pH 7.5 (NaOH), 10 mM MgCl2, 0.5 mM EGTA, 0.1% Triton X-100, 2 mM TCEP, and 0.1 mg/ml BSA, 1 mM ATP, 60 μM phosphatidylinositol, and 1.5 nM human PI4K-beta 13-828 (D316-330) in a total volume of 6 μL. The assay was initiated with the addition of enzyme, covered, and incubated at room temperature for 3 hours. The assays were stopped with the addition of 6 μl ADP-GLO Reagent containing 0.1% CHAPS to deplete the unconsumed ATP. The plates were incubated at room temperature for 60 min and then 12 μl of the Kinase Detection Reagent containing 0.1% CHAPS was added to convert ADP to ATP and introduce luciferase and luciferin. After 40 min incubation at room temperature the luminescent signal was read on a BMG Labtech PHERAstar FS with the following settings; Gain 3600, Focal height 13.7 mm, measurement interval time 1 s, Settling time 0.2 s. The inhibitory effect of the PI4K-beta activity of the compounds was evaluated by the IC50 of the response relative to the high, no compound, and low, no enzyme, controls by fitting to the four parameter dose response question.

T1 sequence (Q9UBF8 1-801 isoform Q9UBF8-2): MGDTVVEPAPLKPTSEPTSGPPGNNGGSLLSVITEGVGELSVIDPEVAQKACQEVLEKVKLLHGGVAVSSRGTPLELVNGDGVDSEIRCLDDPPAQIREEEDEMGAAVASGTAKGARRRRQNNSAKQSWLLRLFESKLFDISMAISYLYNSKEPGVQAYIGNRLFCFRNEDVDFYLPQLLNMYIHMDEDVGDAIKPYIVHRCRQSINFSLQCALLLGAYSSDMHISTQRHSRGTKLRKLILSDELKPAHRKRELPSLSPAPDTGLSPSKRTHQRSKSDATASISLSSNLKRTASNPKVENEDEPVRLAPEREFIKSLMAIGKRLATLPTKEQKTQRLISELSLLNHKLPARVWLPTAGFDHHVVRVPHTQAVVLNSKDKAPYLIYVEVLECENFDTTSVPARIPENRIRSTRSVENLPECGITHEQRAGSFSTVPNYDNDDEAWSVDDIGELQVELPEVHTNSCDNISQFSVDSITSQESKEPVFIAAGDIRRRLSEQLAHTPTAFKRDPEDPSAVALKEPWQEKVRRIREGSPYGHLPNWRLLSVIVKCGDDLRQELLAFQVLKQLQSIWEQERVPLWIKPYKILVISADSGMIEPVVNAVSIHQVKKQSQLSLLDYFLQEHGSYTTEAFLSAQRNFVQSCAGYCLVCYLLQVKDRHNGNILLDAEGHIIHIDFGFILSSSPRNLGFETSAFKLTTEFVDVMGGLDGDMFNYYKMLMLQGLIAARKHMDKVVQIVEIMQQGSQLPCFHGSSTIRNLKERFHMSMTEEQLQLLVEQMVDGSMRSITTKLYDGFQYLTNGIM

| SMILES | IC50 [1] [nM] | IC50 [2] [nM] |
| --- | --- | --- |
| CCC(O)(CC)c1cc(NCc2cccc(-c3nccn3C)c2)n2nc(C)c(-c3ccc(C)c(C(=O)N(C)CCCO)c3)c2n1 [Compound 68, 5-(5-(3-Hydroxypentan-3-yl)-2-methyl-7-((3-(1-methyl-1H-imidazol-2-yl)benzyl)amino)pyrazolo[1,5-a]pyrimidin3-yl)-N-(3-hydroxypropyl)-N,2-dimethylbenzamide] | – | ≤ 3.98 |
| Cc1ccc(-c2c(C)nn3c(NCc4cccc(-c5nccn5C)c4)cc(C(C)(C)O)nc23)cc1C(=O)N(C)[C@H](C)CO [Compound 39] | – | ≤ 3.98 |
| CCC(CO)c1cc(NCc2cccc(-c3nccn3C)c2)n2nc(C)c(-c3ccc(OC)c(S(=O)(=O)CCO)c3)c2n1 (stereo not shown) [Compound 86, 2-(3-(3-((2-Hydroxyethyl)sulfonyl)-4-methoxyphenyl)-2-methyl-7-((3-(1-methyl-1H-imidazol-2-yl)benzyl)amino)pyrazolo[1,5-a]pyrimidin-5-yl)butan-1-ol] | – | ≤ 3.98 |
| CCN(CCO)C(=O)c1cc(-c2c(C)nn3c(NCc4cccc(-c5nccn5C)c4)cc(C(C)O)nc23)ccc1OC (stereo not shown) [Compound 11] | – | ≤ 3.98 |
| Cc1ccc(-c2c(C)nn3c(NCc4cccc(-c5nccn5C)c4)cc(C(C)O)nc23)cc1C(=O)N(C)CCCO (stereo not shown) [Compound 13] | ≤ 25.1 | – |
| COc1ccc(-c2c(C)nn3c(NCc4cccc(-c5nccn5C)c4)cc(C(C)O)nc23)cc1S(C)(=O)=O (stereo not shown) [Compound 1, 1-(3-(4-Methoxy-3-(methylsulfonyl)phenyl)-2-methyl-7-((3-(1-methyl-1H-imidazol-2-yl)benzyl)amino)pyrazolo[1,5-a]pyrimidin-5-yl)ethanol] | – | ≤ 3.98 |
| CCC(O)c1cc(NCc2cccc(-c3nccn3C)c2)n2nc(C)c(-c3ccc(OC)c(S(=O)(=O)CCO)c3)c2n1 (single isomer, unassigned) [Compound 75, 1-(3-(3-((2-Hydroxyethyl)sulfonyl)-4-methoxyphenyl)-2-methyl-7-((3-(1-methyl-1H-imidazol-2-yl)benzyl)amino)pyrazolo[1,5-a]pyrimidin-5-yl)propan-1-ol] | – | ≤ 3.98 |
| COc1ccc(-c2c(C)nn3c(NCc4cccc(-c5nccn5C)c4)cc(C4CCOCC4)nc23)cc1S(=O)(=O)CCO [Compound 64, 2-((2-Methoxy-5-(2-methyl-7-((3-(1-methyl-1H-imidazol-2-yl)benzyl)amino)-5-(tetrahydro-2H-pyran-4-yl)pyrazolo[1,5-a]pyrimidin-3-yl)phenyl)sulfonyl)ethan-1-ol] | – | ≤ 3.98 |
| CCC(O)c1cc(NCc2cccc(-c3nccn3C)c2)n2nc(C)c(-c3ccc(C)c(C(=O)N(C)[C@@H](C)CO)c3)c2n1 (single isomer, unassigned) [Compound 80] | – | ≤ 3.98 |
| Cc1ccc(-c2c(C)nn3c(NCc4cccc(-c5nccn5C)c4)cc(C(C)(C)O)nc23)cc1C(=O)N(C)C(C)CO (stereo not shown) [Compound 40] | – | ≤ 3.98 |
| CCC(CO)c1cc(NCc2cccc(-c3nccn3C)c2)n2nc(C)c(-c3ccc(C)c(C(=O)N(C)CCCO)c3)c2n1 (stereo not shown) [Compound 65, 5-(5-(1-Hydroxybutan-2-yl)-2-methyl-7-((3-(1-methyl-1H-imidazol-2-yl)benzyl)amino)pyrazolo[1,5-a]pyrimidin-3-yl)-N-(3-hydroxypropyl)-N,2-dimethylbenzamide] | – | ≤ 3.98 |
| COc1ccc(-c2c(C)nn3c(NCc4cccc(-c5nccn5C)c4)cc(C(C)(C)O)nc23)cc1C(=O)N(C)C(C)CO (stereo not shown) [Compound 42] | – | ≤ 3.98 |
| Cc1nn2c(NCc3cccc(-c4nccn4C)c3)cc(C(C)O)nc2c1-c1ccc(Cl)c(C(=O)N(C)CCCO)c1 (stereo not shown) [Compound 10] | – | ≤ 3.98 |

Now from value to molecule:

| IC50 [1] [nM] | IC50 [2] [nM] | SMILES |
| --- | --- | --- |
| ≤ 25.1 | – | COc1ccc(-c2c(C)nn3c(NCc4cccc(-c5nccn5C)c4)cc(C(C)(C)O)nc23)cc1C(=O)N1CC[C@H](O)C1 [Compound 8, (S)-(5-(5-(2-Hydroxypropan-2-yl)-2-methyl-7-((3-(1-methyl-1H-imidazol-2-yl)benzyl)amino)pyrazolo[1,5-a]pyrimidin-3-yl)-2-methoxyphenyl)(3-hydroxypyrrolidin-1-yl)methanone] |
| – | ≤ 3.98 | Cc1ccc(-c2c(C)nn3c(NCc4cccc(-c5nccn5C)c4)cc(C(C)(C)O)nc23)cc1C(=O)N1CCC[C@@H]1CO [Compound 25, (R)-(2-(hydroxymethyl)pyrrolidin-1-yl)(5-(5-(2-hydroxypropan-2-yl)-2-methyl-7-((3-(1-methyl-1H-imidazol-2-yl)benzyl)amino)pyrazolo[1,5-a]pyrimidin-3-yl)-2-methylphenyl)methanone] |
| – | ≤ 3.98 | Cc1ccc(-c2c(C)nn3c(NCc4cccc(-c5nccn5C)c4)cc(C(C)(C)O)nc23)cc1C(=O)N1CCC(C)(O)C1 (stereo not shown) [Compound 31] |
| – | ≤ 3.98 | Cc1ccc(-c2c(C)nn3c(NCc4cccc(-n5cccn5)c4)cc(C(C)(C)O)nc23)cc1C(=O)N(C)CCO [Compound 47] |
| – | ≤ 3.98 | Cc1ccc(-c2c(C)nn3c(NCc4cccc(-n5cccn5)c4)cc(C(C)(C)O)nc23)cc1C(=O)N1CCC[C@@H]1CO [Compound 35] |
| – | ≤ 3.98 | COc1ccc(-c2c(C)nn3c(NCc4cccc(-n5cccn5)c4)cc(C(C)(C)O)nc23)cc1C(=O)N1CCC[C@@H]1CO [Compound 49] |
| – | ≤ 3.98 | Cc1ccc(-c2c(C)nn3c(NCc4cccc(-n5cccn5)c4)cc(C(C)(C)O)nc23)cc1C(=O)N1CC[C@H](O)C1 [Compound 50] |
| – | ≤ 3.98 | Cc1ccc(-c2c(C)nn3c(NCc4cccc(-c5nccn5C)c4)cc(C(C)(C)O)nc23)cc1C(=O)N(C)CCO [Compound 43, N-(2-hydroxyethyl)-5-(5-(2-hydroxypropan-2-yl)-2-methyl-7-((3-(1-methyl-1H-imidazol-2-yl)benzyl)amino)pyrazolo[1,5-a]pyrimidin-3-yl)-N,2-dimethylbenzamide] |
| – | ≤ 3.98 | Cc1ccc(-c2c(C)nn3c(NCc4cccc(-c5nccn5C)c4)cc(C(C)(C)O)nc23)cc1C(=O)N1CCC(O)C1 (stereo not shown) [Compound 41] |
| – | ≤ 3.98 | Cc1ccc(-c2c(C)nn3c(NCc4cccc(-c5nccn5C)c4)cc(C(C)(C)O)nc23)cc1C(=O)N(C)C1CCOC1 (stereo not shown) [Compound 59, 5-(5-(2-Hydroxypropan-2-yl)-2-methyl-7-((3-(1-methyl-1H-imidazol-2-yl)benzyl)amino)pyrazolo[1,5-a]pyrimidin-3-yl)-N,2-dimethyl-N-(tetrahydrofuran-3-yl)benzamide] |
| – | ≤ 3.98 | COc1ccc(-c2c(C)nn3c(NCc4cccc(-c5nccn5C)c4)cc(C(C)(C)O)nc23)cc1C(=O)N1CCC[C@@H]1CO [Compound 36, (R)-(2-(hydroxymethyl)pyrrolidin-1-yl)(5-(5-(2-hydroxypropan-2-yl)-2-methyl-7-((3-(1-methyl-1H-imidazol-2-yl)benzyl)amino)pyrazolo[1,5-a]pyrimidin-3-yl)-2-methoxyphenyl)methanone] |
| ≤ 25.1 | – | COc1ccc(-c2c(C)nn3c(NCc4cccc(-c5nccn5C)c4)cc(C(C)(C)O)nc23)cc1C(=O)N1CCOC[C@@H]1C [Compound 30] |
